Read-outs that look alike come from different tables or passages of the source.
Tests used:
PSC-human lung cells = assay: Cell viability assay CellTiter-Glo, PSC-human lung cells (Example 7)
[1] = tested on: SARS-CoV-2 isolate USA-WA1/2020; assay: SARS-CoV-2 infection in Caco-2 cells, qRT-PCR (Example 7); assay type: cell-based
[2] = tested on: SARS-CoV-2 isolate USA-WA1/2020; assay: SARS-CoV-2 infection in Vero E6 cells, qRT-PCR of Spike RNA (Example 3); assay type: cell-based
VERO E6 cells [3] = assay: Cell viability assay CellTiter-Glo, Vero E6 cells (Example 7)
VERO E6 cells [4] = assay: CellTiter-Glo luminescent cell viability assay, Vero E6 (Example 3); assay type: cell-based
Procedure: (§1) CellTiter-glo luminescent cell viability assay: Approximately 10^4 Vero E6 cells per well were seeded in opaque walled 96 well cell culture plates and incubated overnight. Compounds or controls were added at the indicated concentrations. […] Viability was calculated compared to untreated controls and CC50 values were calculated using Prism 8.
(§2) Determination of Cytotoxicity: The 50% cytotoxic concentrations (CC50) were determined with Cell Titer Glo (Cat. #G7570, Promega, Madison, WI) according to the manufacturer's instructions. The calculated CC50 values are shown in the foregoing table.
(§3) Relative viability was measured by CellTiter-Glo luminescent cell viability assay, as depicted at FIG. 2.

[5] = tested on: SARS-CoV-2 isolate USA-WA1/2020; assay: SARS-CoV-2 infection in PSC-human lung cells, qRT-PCR (Example 7); assay type: cell-based
Huh7.5 cells [6] = assay: Cytotoxicity in Huh7.5 cells, nuclei count (Example 6); assay type: cell-based, human
Calu-3 cells = assay: Cell viability assay CellTiter-Glo, Calu-3 cells (Example 7); details: Calu-3 cells, CellTiter-Glo
Caco-2 cells = assay: Cell viability assay CellTiter-Glo, Caco-2 cells (Example 7); details: Caco-2 cells, CellTiter-Glo
[7] = tested on: SARS-CoV-2 isolate USA-WA1/2020; assay: SARS-CoV-2 infection in Calu-3 cells, qRT-PCR (Example 7); assay type: cell-based
HCoV-229E = assay type: cell-based, human Coronavirus 229E
[8] = tested on: SARS-CoV-2 isolate USA-WA1/2020; assay: SARS-CoV-2 infection in Huh7.5 cells, qRT-PCR (Example 7); assay type: cell-based; details: for Selectivity: CC50/EC50, Huh7.5 cells
Huh7.5 cells [9] = assay: Cell viability assay CellTiter-Glo, Huh7.5 cells (Example 7)
[10] = tested on: USA WA-01 strain of SARS CoV-2; assay: Anti-coronavirus activity in Vero E6 cells, qPCR of spike RNA (Example 2); assay type: cell-based
Procedure: (§4) Ten thousand Vero E6 cells were seeded in 100 microliters of culture medium in 96 well plates. The following day serial two-fold dilutions of antiviral compounds or the DMSO-containing vehicle were added to each well. The USA WA-01 strain of SARS CoV-2 was added to each well at a multiplicity of infection of 0.1 thirty minutes later. Cells were incubated for 48 hours, washed twice in PBS and lysed with TRIzol. RNA was extracted using Directzol micro RNA columns. RNA was made into cDNA and assayed for the SARS CoV-2 spike protein and for a housekeeping gene (RPLPO) RNA by qPCR. Data represents the average of duplicate wells. Cellular cytotoxicity was also measured in VERO E6 cells. […] Cytotoxicity (CC50) was assessed using a commercially available MTT assay.

[11] = tested on: SARS-CoV-2 isolate USA-WA1/2020; assay: SARS-CoV-2 infection in Vero E6 cells, qRT-PCR (Example 7); assay type: cell-based; details: for Selectivity: CC50/EC50, Vero E6 cells; for EC50 / EC90: Vero E6 cells, MOI 0.01, 48 hours
VERO E6 cells [12] = assay: Cellular cytotoxicity in Vero E6 cells, MTT assay (Example 2); assay type: cell-based
Procedure: as §4

VERO E6 cells [13] = assay: Generation of remdesivir triphosphate in Vero E6 cells (LC/MS/MS); assay type: in vitro ADME; details: 1 micromolar drug, up to 48 hours
Procedure: In this example, Vero E6 cells were plated in 6 well plates at about 3.4×10^5 cells per well in 2 mL of media (DMEM, 10% FBS).
Cells were then incubated at 37° C. for 24 hours. Media was then aspirated and replaced with 2 mL of control media (fresh Dulbecco's Modified Eagle's Medium (DMEM), 10% FBS) or 2 mL of media with drug at a concentration of 1 μM. Cell were incubated with the various drugs for 48 hours. The media was aspirated, the cells rinsed twice with phosphate-buffered saline (PBS), trypsinized for 5 minutes with 1 mL ATV, triturated and removed to a 15 mL centrifuge tube, rinsed with 1 mL PBS, which was also then removed to the 15 mL centrifuge tube, and the cells were triturated again. Cells were counted in a Reichert hemocytometer using two 10 μL samples, and the number of cells in each sample was determined.
Cells were centrifuged at 1200 rpm for 10 minutes, diluent aspirated and the pellet resuspended in 250 μL of methanol/distilled water (70/30) and analyzed by LC/MS/MS. The results, which are depicted at FIG. 3, were in picomoles/10^6 cells and were the average of two or three determinations.

[14] = CellTiter-Glo luminescent cell viability assay, Vero E6 (Example 3); assay type: cell-based; details: African green monkey; Vero E6 cells, Cell Titer Glo, 48.5 hours; read-out: CC50
Procedure: as §1, §2, §3

[15] = reported, Siegel et al. 2017; cited from earlier work
[16] = Cell viability assay CellTiter-Glo, Calu-3 cells (Example 7); details: human
[17] = Cell viability assay CellTiter-Glo, Caco-2 cells (Example 7); details: human
[18] = after intravenous infusion, reported; cited from earlier work
[19] = Cellular cytotoxicity in Vero E6 cells, MTT assay (Example 2); assay type: cell-based; details: African green monkey
Procedure: as §4

in vitro = details: human
Procedure: Cells were infected with 229E for 2 hours followed by treatment with the indicated dose of the indicated drug for 72 hours. The relative CPE was determined by measuring cell viability using an MTT assay. depicts the cytotoxicity in MRC-5 cells incubated in the presence of the indicated drug at the indicated concentration for 72 hours, after which cell viability was measured by the CellTiter-Glo assay. Data points indicate the averages from 3 independent experiments performed in duplicate. Error bars represent the standard error mean (SEM).

HIV-1 [20] = details: Beadle et al. Antiviral Res. 2019; cited from earlier work
HIV-1 [21] = details: for EC50: HIV infected human PBMCs
Procedure: Antiviral activities were determined in HIV infected human PBMCs.

HFF cells = assay: Persistence of TFVpp in HFF cells after a 3 day exposure
Text: HFF cells were exposed to 1 micromolar drug for 3 days. At days 0, 1, 2, 4, 7, 14, 21, and 28, cells were trypsinized, counted, and processed for LC/MS measurement of TFVpp. Data were expressed at ftg/cell. nm=not meaningful; ftg—gemtogram.

human PBMCs = assay: Cytotoxicity (CC50) in human PBMCs; assay type: cell-based
[22] = 42 day pharmacokinetic study after a single IM administration in rats, formulations F3, F4, F7, F8; assay type: in vivo; details: for time with plasma levels at a virally significant level: rats, IM, only the 100 mg/kg dose, formulation F3
Procedure: Comparison of Formulations F3, F4, F7 and F8 following a single IM administration in rats—Groups: Vehicle control, 10 mg/kg, 30 mg/kg and 100 mg/kg of formulations 3, 4, 7, 8.
Procedure: At time zero rats were injected intramuscularly with 100 microliters of vehicle and formulations as noted. […] Blood was obtained at 6, 24 and 48 hours, and at 7, 14, 28, 35 and 42 days and the plasma levels of ODE-Bn-TFV and ODE-TFV (the first metabolite, also an active anti-HIV compound) were determined by LC/MS/MS.
A 42 days pharmacokinetic study of formulations 3, 4, 7, and 8 of this example in rats was conducted. In the study, 100, 30, and 10 mg/kg of each formulation was administered by intramuscular (IM) injection to male Sprague Dawley rates (100 microliters). […] The rats were subjected to twice weekly clinical observations, and weights were collected.

[23] = rat, in vivo
Procedure: Maximal volume IM injections of 100 microliters were given at day 0, 30 and 60 to groups of 3 rats. There were 3 groups of control animals who received monthly injections of F3 vehicle. […] Weights were assessed over the 3-month period. […] Because a constant (maximal) IM volume of 100 microliters was given, the initial dose was 90 mg/kg and the two following injections at days 30 and 60 were lower, 62 mg/kg, due to weight increases of the rats.

[24] = design: species or system beagle dogs; details: dog, in vivo
Procedure: Canine Pharmacokinetics of ODE-Bn-TFV in Formulation F3—A 30 day study in beagle dogs was done with 30 mg/kg IM doses of ODE-Bn-TFV in formulation F3.

[25] = Caco-2 cells, MOI 0.01, 48 hours
[26] = Vero E6 cells, MOI 0.01, 48 hours, mean±SD
[27] = Huh7.5 cells, MOI 0.01, 48 hours, qRT-PCR (Example 7)
[28] = Vero E6 cells, MOI 0.1, 48 hours
[29] = Severe acute respiratory syndrome coronavirus 2, Vero C1008

Compound: CCCCCCCCCCCCCCCCCCOCCOP(=O)(O)OC[C@H]1O[C@@](C#N)(c2ccc3c(N)ncnn23)[C@H](O)[C@@H]1O [Compound 4c, 2-(Octadecyloxy)ethyl-phospho-RVn]
- CC50 (PSC-human lung cells): > 100000 nM
- Selectivity ([1]; CC50/EC50, Caco-2 cells): >129
- EC50 [1, 25]: 770 nM
- EC90 [1, 25]: 1250 nM
- Selectivity ([2]; CC50/EC50, Vero E6): >212
- EC50 [2, 26]: 470 ± 180 nM
- EC90 [2, 26]: 1100 ± 800 nM
- times more active than RDV ([2]; based on the EC50 values, Vero E6): 9.8
- CC50 (VERO E6 cells [3]): > 100000 nM
- CC50 (VERO E6 cells [4]): > 100000 nM
- Selectivity ([5]; CC50/EC50, PSC-human lung cells): >454
- EC90 ([5]; PSC-human lung cells, MOI 0.01, 48 hours): 700 nM
- EC50 ([5]; PSC-human lung cells, MOI 0.01, 48 hours, listed as ODE-P-RVn): 220 nM
- CC50 (Huh7.5 cells [6]): > 20000 nM
- CC50 (Calu-3 cells): 98700 nM
- CC50 (Caco-2 cells): > 100000 nM
- Selectivity ([7]; CC50/EC50, Calu-3 cells): 290
- EC90 ([7]; Calu-3 cells, MOI 0.01, 48 hours): 640 nM
- EC50 ([7]; Calu-3 cells, MOI 0.01, 48 hours, listed as ODE-P-RVn): 340 nM
- EC50 (HCoV-229E): 410 ± 12 nM
- EC90 (HCoV-229E): 840 ± 95 nM
- CC50 (MRC-5 cells): > 50000 nM
- Selectivity [8]: >526
- EC50 [8, 27]: 190 nM
- EC90 [8, 27]: 370 nM
- EC50 ([8]; Huh7.5 cells, MOI 0.01, 48 hours, qRT-PCR (Example 7), listed as ODE-P-RVn): 190 nM
- CC50 (Huh7.5 cells [9]): > 100000 nM
- Selectivity Index ([10]; CC50/EC50, Vero E6): >143
- EC50 [10, 28]: 350 nM
- EC90 [10, 28]: 530 nM
- Selectivity [11]: >333
- EC50 [11]: 300 nM
- EC90 [11]: 330 nM
- CC50 (VERO E6 cells [12]): > 50000 nM

Compound: CCC(CC)COC(=O)[C@H](C)N[P@](=O)(OC[C@H]1O[C@@](C#N)(c2ccc3c(N)ncnn23)[C@H](O)[C@@H]1O)Oc1ccccc1 [RDV, Remdesivir, reference compound]
- levels of remdesivir triphosphate (RVn-TP) (VERO E6 cells [13]): below the level of quantification
- CC50 at 48.5 h [14]: > 100000 nM
- T1/2 ex vivo in human plasma [15]: 1.15 h
- CC50 at 48.5 h [16]: > 100000 nM
- CC50 at 48.5 h [17]: > 100000 nM
- time persisting at virologically significant levels in plasma [18]: less than 2 hours
- Selectivity [8]: 253
- Selectivity [11]: 89.4
- EC50 [11, 29]: 1130 nM
- EC90 [11, 29]: 7050 nM
- CC50 [19]: > 50000 nM
- CC50 (in vitro): > 50000 nM

Compound: CCCCCCCCCCCCCCCCCCOCCOP(=O)(O)CO[C@H](C)Cn1cnc2c(N)ncnc21 [ODE-TFV]
- EC90 (HIV-1 [20]): 10 nM
- EC50 (HIV-1 [21]): 1.1 nM
- ED90 (HIV-1 [21]; reference line in FIG. 12B): 6.3 nm/mL
- T1/2 of TFVpp (HFF cells): 1.2
- Tmax of TFVpp (HFF cells): 0 h
- CC50 (human PBMCs): 1280 nM
- time with plasma levels at a virally significant level [22]: 28 days

Compound: Octadecyloxyethyl benzyl tenofovir [ODE-Bn-TFV]
- clinical observations, metabolic panels, CBCs [23]: no clinical observations of significance
- EC50 (HIV-1 [21]): 1.7 nM
- ED90 (HIV-1 [21]; reference line in FIG. 12A): 10.9 ng/mL
- Selectivity Index (HIV-1 [21]; variation of the diester substituent of ODE-TFV): 5130
- T1/2 of TFVpp (HFF cells): 3.7
- Tmax of TFVpp (HFF cells): 48 h
- CC50 (human PBMCs): 8720 nM
- adverse effects [24]: no adverse effects except for some transient swelling at the injection sites
- initial plasma values ([22]; rat, in vivo): ~100 ng/mL
- time with plasma levels at a virally significant level [22]: 28 days

Source: patent publication US12594292B2, “Antiviral prodrugs, intermediate-and long-acting formulations and methods” (priority 2022, dated 2026)
